Values quoted from earlier work in patent publication US20160199302A1, “Pharmaceutical Composition Comprising Temozolomide With Improved Stability and Process for Manufacturing the Same” (Samyang Biopharmaceuticals Corporation, priority 2012, published 2016).

Conditions: background

For Cn1nnc2c(C(N)=O)ncn2c1=O [temozolomide, 3,4-dihydro-3-methyl-4-oxoimidazo[5,1-d]-as-tetrazine-8-carboxamide], the Solubility in water is listed as “water-insoluble”.
